Laboratory results as given in US8765748B2, “Indazolyl, benzimidazolyl, benzotriazolyl substituted indolinone derivatives as kinase inhibitors useful in the treatment of cancer” (University Health Network, priority 2007, dated 2014).

Assays:
Assay in all cases: Kinase Selectivity Assay (CEREP, HTRF)
Format in all cases: biochemical
p38g kinase = molecular target: T1, p38g kinase (Homo sapiens, UniProt P53778); conditions: read-out: % Inhibition at 10 μM Concentration, p38gamma
T1 sequence (P53778 1-367): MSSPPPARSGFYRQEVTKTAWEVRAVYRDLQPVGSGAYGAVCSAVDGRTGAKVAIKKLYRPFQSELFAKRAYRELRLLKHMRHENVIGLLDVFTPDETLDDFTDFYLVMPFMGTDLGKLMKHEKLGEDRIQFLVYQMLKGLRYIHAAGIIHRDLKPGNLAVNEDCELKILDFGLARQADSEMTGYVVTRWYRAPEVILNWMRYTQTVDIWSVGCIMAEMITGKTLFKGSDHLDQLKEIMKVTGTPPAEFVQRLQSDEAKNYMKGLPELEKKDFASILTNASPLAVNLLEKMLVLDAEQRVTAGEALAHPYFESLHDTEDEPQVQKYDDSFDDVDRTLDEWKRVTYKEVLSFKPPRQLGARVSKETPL
Experimental: (§1) kinase, ROCK2, RSK2, Src kinase, Syk, and TRKA. The % Inhibition was determined

p38a kinase = p38a kinase (Homo sapiens, UniProt Q16539); conditions: read-out: % Inhibition at 10 μM Concentration, p38alpha
Chain of p38a kinase (Q16539 whole entry): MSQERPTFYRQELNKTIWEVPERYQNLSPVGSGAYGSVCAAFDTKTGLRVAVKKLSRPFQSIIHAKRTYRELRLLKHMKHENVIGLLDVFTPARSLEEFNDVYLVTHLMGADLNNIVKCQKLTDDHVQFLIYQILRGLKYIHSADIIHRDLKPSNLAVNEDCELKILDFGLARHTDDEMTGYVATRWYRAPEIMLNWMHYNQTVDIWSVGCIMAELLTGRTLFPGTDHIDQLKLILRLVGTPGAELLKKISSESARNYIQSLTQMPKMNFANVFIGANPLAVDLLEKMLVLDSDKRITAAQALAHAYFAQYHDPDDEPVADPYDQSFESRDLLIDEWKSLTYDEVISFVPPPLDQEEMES
Experimental: as §1

MAPKAPK2 = MAPKAPK2 (Homo sapiens, UniProt P49137); conditions: read-out: % Inhibition at 10 μM Concentration, MAPKAPK2
Chain of MAPKAPK2 (P49137 whole entry): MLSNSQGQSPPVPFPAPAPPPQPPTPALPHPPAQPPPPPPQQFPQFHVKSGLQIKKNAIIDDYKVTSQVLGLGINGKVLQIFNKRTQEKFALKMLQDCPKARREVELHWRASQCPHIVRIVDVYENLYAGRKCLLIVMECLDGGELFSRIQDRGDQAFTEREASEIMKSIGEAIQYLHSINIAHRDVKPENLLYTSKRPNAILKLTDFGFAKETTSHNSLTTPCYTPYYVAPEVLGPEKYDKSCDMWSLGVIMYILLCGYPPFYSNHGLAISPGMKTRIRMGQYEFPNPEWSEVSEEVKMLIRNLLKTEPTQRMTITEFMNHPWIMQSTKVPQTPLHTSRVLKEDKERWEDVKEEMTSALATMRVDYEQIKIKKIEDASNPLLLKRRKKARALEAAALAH
Experimental: as §1

PDK1 = molecular target: T2, PDK1 (Homo sapiens, UniProt O15530); conditions: read-out: % Inhibition at 10 μM Concentration, PDK1
T2 sequence (O15530 1-556): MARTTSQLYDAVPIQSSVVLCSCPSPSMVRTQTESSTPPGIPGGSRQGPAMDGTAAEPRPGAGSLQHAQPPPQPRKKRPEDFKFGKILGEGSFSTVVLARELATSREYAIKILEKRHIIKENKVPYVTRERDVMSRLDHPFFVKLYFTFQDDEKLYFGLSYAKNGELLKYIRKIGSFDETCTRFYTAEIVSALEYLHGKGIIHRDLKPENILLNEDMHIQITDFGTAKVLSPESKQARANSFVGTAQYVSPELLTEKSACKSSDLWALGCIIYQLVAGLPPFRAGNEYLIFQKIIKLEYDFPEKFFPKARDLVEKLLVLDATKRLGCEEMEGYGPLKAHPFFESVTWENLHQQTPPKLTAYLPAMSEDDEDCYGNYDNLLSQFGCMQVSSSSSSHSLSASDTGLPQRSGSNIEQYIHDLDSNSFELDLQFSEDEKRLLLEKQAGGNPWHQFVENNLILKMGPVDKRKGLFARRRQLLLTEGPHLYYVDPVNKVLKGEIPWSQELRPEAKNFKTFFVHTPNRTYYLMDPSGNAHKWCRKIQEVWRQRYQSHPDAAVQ
Experimental: as §1

CSK = molecular target: T3, CSK (Homo sapiens, UniProt P41240); conditions: read-out: % Inhibition at 10 μM Concentration, CSK
T3 construct: CEREP, France (ran the assays)
Experimental: as §1

Lyn = Lyn (Homo sapiens, UniProt P07948); conditions: read-out: % Inhibition at 10 μM Concentration, Lyn
Chain of Lyn (P07948 whole entry): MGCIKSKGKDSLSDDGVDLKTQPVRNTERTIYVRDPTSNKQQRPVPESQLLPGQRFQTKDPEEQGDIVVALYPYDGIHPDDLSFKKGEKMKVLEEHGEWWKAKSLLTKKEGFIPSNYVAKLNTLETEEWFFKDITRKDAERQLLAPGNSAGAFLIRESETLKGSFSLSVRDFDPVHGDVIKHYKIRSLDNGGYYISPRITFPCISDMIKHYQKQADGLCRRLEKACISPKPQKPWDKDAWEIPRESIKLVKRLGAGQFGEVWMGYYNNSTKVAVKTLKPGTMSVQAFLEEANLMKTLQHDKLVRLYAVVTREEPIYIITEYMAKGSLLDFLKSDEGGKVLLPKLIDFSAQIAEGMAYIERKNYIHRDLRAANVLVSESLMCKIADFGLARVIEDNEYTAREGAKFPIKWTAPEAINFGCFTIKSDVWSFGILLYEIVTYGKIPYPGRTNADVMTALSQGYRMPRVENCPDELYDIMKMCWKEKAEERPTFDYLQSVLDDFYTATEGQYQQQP
Experimental: as §1

IGF1R kinase = IGF1R kinase (Homo sapiens, UniProt P08069); conditions: read-out: % Inhibition at 10 μM Concentration, IGF1R
Chain of IGF1R kinase (P08069 31-1367): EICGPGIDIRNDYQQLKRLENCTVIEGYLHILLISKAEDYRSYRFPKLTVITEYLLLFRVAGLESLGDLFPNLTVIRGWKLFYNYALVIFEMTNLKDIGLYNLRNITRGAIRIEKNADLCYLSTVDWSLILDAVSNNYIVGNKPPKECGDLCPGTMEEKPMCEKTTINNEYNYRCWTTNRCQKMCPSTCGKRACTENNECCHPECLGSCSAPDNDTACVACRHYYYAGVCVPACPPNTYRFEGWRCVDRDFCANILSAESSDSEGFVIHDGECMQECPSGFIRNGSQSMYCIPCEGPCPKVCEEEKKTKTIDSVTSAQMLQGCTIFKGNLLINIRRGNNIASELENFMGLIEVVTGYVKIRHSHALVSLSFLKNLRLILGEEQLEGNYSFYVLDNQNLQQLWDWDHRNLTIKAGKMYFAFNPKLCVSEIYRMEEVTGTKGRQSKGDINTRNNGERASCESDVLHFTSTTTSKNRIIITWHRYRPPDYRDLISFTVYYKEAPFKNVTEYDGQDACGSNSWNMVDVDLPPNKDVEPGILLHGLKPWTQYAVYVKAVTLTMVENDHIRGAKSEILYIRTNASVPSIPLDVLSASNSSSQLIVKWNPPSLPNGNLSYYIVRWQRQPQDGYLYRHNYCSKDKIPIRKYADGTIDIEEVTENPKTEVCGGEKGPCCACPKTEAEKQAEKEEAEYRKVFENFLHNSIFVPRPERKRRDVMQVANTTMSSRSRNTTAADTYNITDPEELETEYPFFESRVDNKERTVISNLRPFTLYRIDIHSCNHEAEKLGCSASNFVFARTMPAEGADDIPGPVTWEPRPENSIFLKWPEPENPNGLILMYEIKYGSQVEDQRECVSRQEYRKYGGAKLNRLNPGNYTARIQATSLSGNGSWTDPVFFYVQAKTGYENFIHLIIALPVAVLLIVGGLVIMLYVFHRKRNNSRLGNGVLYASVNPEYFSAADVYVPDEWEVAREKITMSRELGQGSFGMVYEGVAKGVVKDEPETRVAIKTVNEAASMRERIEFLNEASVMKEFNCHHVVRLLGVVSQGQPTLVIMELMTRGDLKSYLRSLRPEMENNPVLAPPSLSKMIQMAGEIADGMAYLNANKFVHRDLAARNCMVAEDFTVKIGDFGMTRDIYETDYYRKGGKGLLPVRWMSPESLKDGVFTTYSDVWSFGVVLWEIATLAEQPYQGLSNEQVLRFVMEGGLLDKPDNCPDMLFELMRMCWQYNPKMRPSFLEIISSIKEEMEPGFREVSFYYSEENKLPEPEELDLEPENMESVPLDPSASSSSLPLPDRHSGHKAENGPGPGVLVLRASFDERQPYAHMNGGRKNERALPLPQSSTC
Experimental: as §1

CHK1 = molecular target: T4, CHK1 (Homo sapiens, UniProt O14757); conditions: read-out: % Inhibition at 10 μM Concentration, CHK1
T4 construct: CEREP, France (ran the assays)
T4 sequence (O14757 1-476): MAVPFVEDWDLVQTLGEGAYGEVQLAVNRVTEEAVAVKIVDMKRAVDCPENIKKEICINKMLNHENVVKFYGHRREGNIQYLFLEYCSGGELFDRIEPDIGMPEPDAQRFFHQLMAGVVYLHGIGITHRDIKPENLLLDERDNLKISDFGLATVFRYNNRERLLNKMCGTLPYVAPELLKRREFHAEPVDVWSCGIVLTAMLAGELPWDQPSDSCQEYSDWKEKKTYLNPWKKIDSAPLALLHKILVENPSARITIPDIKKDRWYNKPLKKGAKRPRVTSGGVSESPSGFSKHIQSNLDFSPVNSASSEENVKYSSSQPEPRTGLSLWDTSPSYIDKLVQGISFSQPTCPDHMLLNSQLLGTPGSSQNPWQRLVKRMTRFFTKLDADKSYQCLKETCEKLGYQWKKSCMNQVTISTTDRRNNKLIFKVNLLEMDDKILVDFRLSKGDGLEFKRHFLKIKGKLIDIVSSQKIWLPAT
Experimental: as §1

CHK2 = molecular target: T5, CHK2 (Homo sapiens, UniProt O96017); conditions: read-out: % Inhibition at 10 μM Concentration, CHK2
T5 construct: CEREP, France (ran the assays)
T5 sequence (O96017 whole entry): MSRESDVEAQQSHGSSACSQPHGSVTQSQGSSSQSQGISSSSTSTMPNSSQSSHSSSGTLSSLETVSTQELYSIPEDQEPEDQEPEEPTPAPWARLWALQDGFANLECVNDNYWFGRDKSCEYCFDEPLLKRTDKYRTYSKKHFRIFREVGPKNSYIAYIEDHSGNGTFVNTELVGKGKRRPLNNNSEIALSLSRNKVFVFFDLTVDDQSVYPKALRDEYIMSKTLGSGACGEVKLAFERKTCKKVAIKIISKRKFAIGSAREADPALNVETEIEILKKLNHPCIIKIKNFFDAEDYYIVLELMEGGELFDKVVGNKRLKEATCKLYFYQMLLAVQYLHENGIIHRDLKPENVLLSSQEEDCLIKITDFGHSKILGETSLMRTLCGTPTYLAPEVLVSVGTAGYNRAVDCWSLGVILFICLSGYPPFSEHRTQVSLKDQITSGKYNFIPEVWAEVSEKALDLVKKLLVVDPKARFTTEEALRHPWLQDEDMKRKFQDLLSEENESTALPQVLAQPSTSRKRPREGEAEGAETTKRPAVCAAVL
Experimental: as §1

PKCa = PKCa (Homo sapiens, UniProt P17252); conditions: read-out: % Inhibition at 10 μM Concentration, PKCalpha
Experimental: as §1

IRK (InsR) = IRK (InsR) (Homo sapiens, UniProt P06213); conditions: read-out: % Inhibition at 10 μM Concentration, IRK (InsR)
Experimental: as §1

PKCb1 = PKCb1 (Homo sapiens, UniProt P05771); conditions: read-out: % Inhibition at 10 μM Concentration, PKCbeta 1
Chain of PKCb1 (P05771 whole entry): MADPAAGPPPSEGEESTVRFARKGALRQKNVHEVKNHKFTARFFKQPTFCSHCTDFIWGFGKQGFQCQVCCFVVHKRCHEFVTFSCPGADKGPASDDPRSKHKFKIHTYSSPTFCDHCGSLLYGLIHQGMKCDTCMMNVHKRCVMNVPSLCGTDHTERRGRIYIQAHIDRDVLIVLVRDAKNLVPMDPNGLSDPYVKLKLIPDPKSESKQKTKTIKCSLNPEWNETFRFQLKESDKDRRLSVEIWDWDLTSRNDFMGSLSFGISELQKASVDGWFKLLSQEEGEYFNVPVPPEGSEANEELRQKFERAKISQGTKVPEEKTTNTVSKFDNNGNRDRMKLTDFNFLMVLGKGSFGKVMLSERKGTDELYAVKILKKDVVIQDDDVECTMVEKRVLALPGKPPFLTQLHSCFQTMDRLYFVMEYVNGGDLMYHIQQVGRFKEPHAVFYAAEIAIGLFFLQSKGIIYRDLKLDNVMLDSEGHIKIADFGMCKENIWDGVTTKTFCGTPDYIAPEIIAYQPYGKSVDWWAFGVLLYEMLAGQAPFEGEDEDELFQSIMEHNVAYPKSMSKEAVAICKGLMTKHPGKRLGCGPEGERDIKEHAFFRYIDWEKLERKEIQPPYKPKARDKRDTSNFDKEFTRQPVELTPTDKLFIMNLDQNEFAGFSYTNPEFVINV
Experimental: as §1

PDGFRb kinase = PDGFRb kinase (Homo sapiens, UniProt P09619); conditions: read-out: % Inhibition at 10 μM Concentration, PDGFRbeta
Chain of PDGFRb kinase (P09619 33-1106): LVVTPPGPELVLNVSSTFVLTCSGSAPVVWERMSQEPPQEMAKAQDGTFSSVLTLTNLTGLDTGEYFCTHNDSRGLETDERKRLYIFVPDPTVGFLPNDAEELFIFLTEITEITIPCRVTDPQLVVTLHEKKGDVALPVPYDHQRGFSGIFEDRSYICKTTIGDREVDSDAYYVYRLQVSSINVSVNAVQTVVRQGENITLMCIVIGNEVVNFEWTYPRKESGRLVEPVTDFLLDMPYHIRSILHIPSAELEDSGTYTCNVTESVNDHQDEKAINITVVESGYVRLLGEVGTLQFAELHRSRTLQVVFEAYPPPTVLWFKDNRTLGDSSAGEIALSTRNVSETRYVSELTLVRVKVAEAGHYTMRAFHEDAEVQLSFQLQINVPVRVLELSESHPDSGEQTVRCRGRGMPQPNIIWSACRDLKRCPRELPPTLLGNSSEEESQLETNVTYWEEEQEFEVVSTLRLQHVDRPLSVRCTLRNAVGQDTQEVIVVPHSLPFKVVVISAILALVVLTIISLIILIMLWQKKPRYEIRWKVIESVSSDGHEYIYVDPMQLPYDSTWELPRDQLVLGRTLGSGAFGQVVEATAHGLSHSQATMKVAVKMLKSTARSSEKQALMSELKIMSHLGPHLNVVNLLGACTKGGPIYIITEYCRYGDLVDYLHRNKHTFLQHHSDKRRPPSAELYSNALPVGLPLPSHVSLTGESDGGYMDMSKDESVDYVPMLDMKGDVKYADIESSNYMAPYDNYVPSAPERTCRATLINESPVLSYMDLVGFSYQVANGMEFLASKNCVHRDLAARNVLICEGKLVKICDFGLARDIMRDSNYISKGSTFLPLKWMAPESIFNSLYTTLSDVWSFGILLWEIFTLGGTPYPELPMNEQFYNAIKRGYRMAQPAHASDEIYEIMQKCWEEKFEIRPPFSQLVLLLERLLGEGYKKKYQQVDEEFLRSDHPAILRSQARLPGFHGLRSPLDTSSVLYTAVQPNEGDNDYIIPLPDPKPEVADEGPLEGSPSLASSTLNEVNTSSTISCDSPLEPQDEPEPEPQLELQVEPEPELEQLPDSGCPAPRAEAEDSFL
Experimental: as §1

| SMILES | inhibition at 10 µM (p38g kinase) | inhibition at 10 µM (p38a kinase) | inhibition at 10 µM (MAPKAPK2) | inhibition at 10 µM (PDK1) | inhibition at 10 µM (CSK) | inhibition at 10 µM (Lyn) | inhibition at 10 µM (IGF1R kinase) | inhibition at 10 µM (CHK1) | inhibition at 10 µM (CHK2) | inhibition at 10 µM (PKCa) | inhibition at 10 µM (IRK (InsR)) | inhibition at 10 µM (PKCb1) | inhibition at 10 µM (PDGFRb kinase) |
| --- | --- | --- | --- | --- | --- | --- | --- | --- | --- | --- | --- | --- | --- |
| O=C1Nc2ccccc2C1=Cc1ccc2c(/C=C/c3ccccn3)n[nH]c2c1 (mixture of isomers) [Example A41, (E and Z)-3-((3-((E)-2-(pyridin-2-yl)vinyl)-1H-indazol-6-yl)methylene)indolin-2-one] | 2% | 16% | 0% | 4% | 86% | 98% | 43% | 7% | 22% | 2% | 34% | -2% | 100% |
| COc1ccc2c(c1)C(=Cc1ccc3c(-c4ccc(N5CCN(C)CC5)nc4)n[nH]c3c1)C(=O)N2 (mixture of isomers) [Example A97, (E and Z)-5-methoxy-3-((3-(6-(4-methylpiperazin-1-yl)pyridin-3-yl)-1H-indazol-6-yl)methylene)indolin-2-one] | 1% | 11% | 4% | 73% | 51% | 85% | 4% | 3% | 4% | 9% | 9% | 2% | 0% |
| O=C1Nc2ccccc2/C1=C\c1ccc2[nH]nnc2c1 [Example A1, (E)-3-((1H-benzo[d][1,2,3]triazol-5-yl)methylene)indolin-2-one] | 14% | -8% | 6% | -3% | 8% | 14% | 7% | -6% | 14% | 9% | 13% | 1% | 46% |
| O=C1Nc2ccccc2/C1=C\c1ccc2cn[nH]c2c1 [Example A5, (E)-3-((1H-indazol-6-yl)methylene)indolin-2-one] | 5% | 18% | 0% | 2% | 5% | -5% | -4% | -2% | 2% | 0% | 12% | -5% | 19% |
| O=C1Nc2ccccc2/C1=C\c1ccc2c(/C=C/c3ccccc3Cl)n[nH]c2c1 [Example A60, (E)-3-((3-((E)-2-chlorostyryl)-1H-indazol-6-yl)methylene)indolin-2-one] | 10% | 1% | 19% | 1% | 17% | 88% | 81% | -1% | 6% | -1% | 6% | 0% | 2% |
